According to paper PMC8252455, “Prediction of a clinically effective dose of THY1773, a novel V 1B receptor antagonist, based on preclinical data” (Biopharmaceutics & Drug Disposition, 2021):
Several values for one entry are separate records, joined by “and”; a condition that tells them apart may be missing. Identical values can stand only once.

Key:
[1] = test system: plasma ACTH; design: method as in Kamiya et al., 2020; settings: rats, oral, doses with >50% V1B occupancy; ref Kamiya et al., 2020; cited from earlier work
[2] = Phase 1 single ascending dose study of TS-121 capsules; type: in vivo, human
Method: (§1) The plasma concentration–time profiles of THY1773 were analyzed by a non‐compartmental analysis with PK analysis software Phoenix WinNonlin® (version 6.1; Certara), and the PK parameters were calculated. The fraction excreted in urine was calculated by dividing the amount of THY1773 excreted in urine by the administered dose.
A first‐in‐human, randomized, double‐blind, placebo‐controlled, adaptive, single‐ascending dose study was conducted to evaluate the safety, tolerability, and PK of single oral doses of TS‐121 capsules in the United States. This study was conducted in accordance with the ethical principles of the Declaration of Helsinki, International Council for Harmonization Good Clinical Practice Guidelines, and the United States Food and Drug Administration Code of Federal Regulations. The study was approved by an institutional ethical review board. All subjects provided written informed consent before participating in the study. Sixty‐eight healthy male or female volunteers were enrolled and received a single oral dose of either TS‐121 capsules (0.5, 2.5, 4, 8, 15, 30, or 50 mg as THY1773/day) or placebo in a 3:1 ratio in a fasted state.
Blood samples were collected at predose and 0.25, 0.5, 0.75, 1, 1.5, 2, 3, 4, 6, 8, 10, 12, 24, 36, and 48 h postdose. Urine samples were collected before dosing and at the following time intervals after dosing: 0–6, 6–12, 12–24, 24–36, and 36–48 h. THY1773 plasma and urine concentrations were determined by validated LC‐MS/MS methods. PK parameters were evaluated following the method as described in Section 2.5 PK analysis.

[3] = Distribution into brain and pituitary gland in rats; type: in vivo, rat; settings: 1 h after oral 1 mg/kg
Method: The PK and urinary excretion of THY1773 in rats (1 mg/kg) and dogs (0.5 mg/kg) under fasted conditions were evaluated following intravenous or oral administration of THY1773. THY1773 was dissolved in 10% (vol/vol) hydroxypropyl‐β‐cyclodextrin at pH 4 for intravenous administration, or suspended in 0.5% (wt/vol) methyl cellulose 400 for oral administration. After a single intravenous or oral administration of THY1773, blood samples were collected into tubes containing EDTA‐2K as an anticoagulant. The scheduled time points were predose (dog only), 5 (intravenous only), 15, 30 min, 1, 2, 4, 8, 12, and 24 h postdose. Plasma was separated by centrifugation. Urine samples were collected into bottles set on ice for 24 h after intravenous administration of THY1773. Plasma and urine samples were treated with 4 volumes of acetonitrile/methanol (9:1, vol/vol) containing the IS. After centrifugation (3639 × g, 4°C, 10 min) to remove precipitated proteins, the supernatant was subjected to LC‐MS/MS analysis. The distributions of THY1773 into brain and pituitary gland in rats were investigated after a single oral administration of THY1773 (1 mg/kg). Blood was collected from the tail vein into tubes containing EDTA‐2K at 1 h after a single oral administration of THY1773, and the plasma was separated by centrifugation (12000 × g, 4°C, 3 min). […]

[4] = Prediction of human Vdss
Text: Human Vdss was also predicted by the two methods reported to be the best methods based on the prediction accuracy (Jones et al., 2011), which were Øie‐Tozer method (Obach et al., 1997) and rat–dog–human proportionality equation described (Wajima, Fukumura, Yano, & Oguma, 2003) by Equations (6) and (7), respectively: (6) Vdss[L/kg]=Vp×(1+RE/I)+Vp×fu×(Ve/Vp−RE/I)+Vr×fu/fu,t (7) log(Vdss,human)=0.07714×log(Vdss,rat)×log(Vdss,dog)+0.5147×log(Vdss,dog)+0.586 where fu,t is the fraction unbound in tissues, RE/I is the ratio of binding protein in the extracellular fluid to that in plasma, Ve, Vp, and Vr is the extracellular, plasma, and remaining fluid volume, respectively. Volumes and plasma protein levels were used as described by Obach et al. (1997).
The fold error of the difference between observed and predicted human PK parameters was calculated by dividing the predicted value by the observed value.

[5] = PK and urinary excretion in dogs; type: in vivo, dog
Method: The PK and urinary excretion of THY1773 in rats (1 mg/kg) and dogs (0.5 mg/kg) under fasted conditions were evaluated following intravenous or oral administration of THY1773. THY1773 was dissolved in 10% (vol/vol) hydroxypropyl‐β‐cyclodextrin at pH 4 for intravenous administration, or suspended in 0.5% (wt/vol) methyl cellulose 400 for oral administration. After a single intravenous or oral administration of THY1773, blood samples were collected into tubes containing EDTA‐2K as an anticoagulant. The scheduled time points were predose (dog only), 5 (intravenous only), 15, 30 min, 1, 2, 4, 8, 12, and 24 h postdose. Plasma was separated by centrifugation. Urine samples were collected into bottles set on ice for 24 h after intravenous administration of THY1773. Plasma and urine samples were treated with 4 volumes of acetonitrile/methanol (9:1, vol/vol) containing the IS. After centrifugation (3639 × g, 4°C, 10 min) to remove precipitated proteins, the supernatant was subjected to LC‐MS/MS analysis. The distributions of THY1773 into brain and pituitary gland in rats were investigated after a single oral administration of THY1773 (1 mg/kg). Blood was collected from the tail vein into tubes containing EDTA‐2K at 1 h after a single oral administration of THY1773, and the plasma was separated by centrifugation (12000 × g, 4°C, 3 min). After blood collection, the brain and pituitary gland were excised followed by homogenization with approximately 4 volumes of distilled water. Plasma, brain, and pituitary samples were treated with 4 volumes of acetonitrile/methanol (9:1, vol/vol) containing the IS and centrifuged (3639 × g, 4°C, 10 min). Aliquots of the supernatant were subjected to LC‐MS/MS analysis.
as §1

[6] = test system: major CYP isoforms; assay: In vitro CYP inhibition or induction potential; type: in vitro ADME; settings: data not shown
[7] = human, average over dose range 0.5 to 50 mg
[8] = human, single oral 30 mg, fasted, mean
[9] = male dogs, iv 0.5 mg/kg, mean (%CV), n=3
[10] = male dogs, po 0.5 mg/kg, mean (%CV), n=3

SMILES: CC(C)NC(=O)Cn1c(-c2cccc(Cl)c2)nn(-c2ccc(CCN3CCOCC3)cc2)c1=O [THY1773]
- Effect on increase in plasma ACTH induced by CRF/desmopressin challenge [1]: significantly inhibited
- Observed CLrenal compared with predicted value ([2]; human): lower than the predicted value
- Observed oral blood CL as share of hepatic blood flow ([2]; human): 2.6 % of the hepatic blood flow
- Apparent volume of distribution during the terminal phase [2, 7]: 40.6 L
- Oral CLtotal [2, 7]: 1.32 L/h
- Dose linearity of PK ([2]; human, dose range 0.5–50 mg): linear PK
- AUC0‐∞ [2, 8]: 21340 ng·h/mL
- CLpo [2, 8]: 1.52 L/h
- Cmax [2, 8]: 949 ng/mL
- Vdz/F [2, 8]: 43.6 L
- tmax ([2]; human, single oral 30 mg, fasted, median): 1.3 h and 1.27 h
- Urinary excretion of unchanged drug ([2]; human, within 48 h post oral dosing, average over dose range): 4.2%
- Observed human CLtotal/F ([2]; oral, phase 1 study): 0.287 mL/min/kg
- Observed human Vdz/F ([2]; oral, phase 1 study): 0.528 L/kg
- Concentration ratio of brain to plasma [3]: 0.2
- Concentration ratio of pituitary gland to plasma [3]: 4.7
- Predicted human Vdss ([4]; Rat–dog–human proportionality equation): 1.38 L/kg
- Predicted human Vdss ([4]; Single species scaling (rat)): 0.349 L/kg
- Predicted human Vdss ([4]; Øie‐Tozer method): 0.404 L/kg
- CLrenal compared with fu × GFR ([5]; dogs): comparable to fu × GFR
- CLtotal as share of hepatic blood flow ([5]; dogs, single intravenous administration): approximately 30 % of hepatic blood flow
- Urinary excretion of unchanged drug ([5]; dogs, within 24 h post intravenous dosing): 2.0%
- AUC0‐∞ [5, 9]: 664 (23.7) h·ng/ml
- CLtotal [5, 9]: 785 (26.4) ml/h/kg
- Vdss [5, 9]: 2020 (37.6) ml/kg
- t1/2 [5, 9]: 3.07 (59.3) h
- AUC0‐∞ [5, 10]: 307 (37.7) h·ng/ml
- Cmax [5, 10]: 105 (12.3) ng/ml
- F (oral bioavailability) [5, 10]: 45.0 (16.6) %
- t1/2 [5, 10]: 2.40 (81.2) h
- tmax [5, 10]: 0.500 (0.0) h
- In vitro inhibition or induction potential on major CYP isoforms [6]: did not have any apparent in vitro inhibition or induction potential
